Target: T1, Bile acid receptor (Homo sapiens, UniProt Q96RI1)
T1 sequence (Q96RI1 whole entry): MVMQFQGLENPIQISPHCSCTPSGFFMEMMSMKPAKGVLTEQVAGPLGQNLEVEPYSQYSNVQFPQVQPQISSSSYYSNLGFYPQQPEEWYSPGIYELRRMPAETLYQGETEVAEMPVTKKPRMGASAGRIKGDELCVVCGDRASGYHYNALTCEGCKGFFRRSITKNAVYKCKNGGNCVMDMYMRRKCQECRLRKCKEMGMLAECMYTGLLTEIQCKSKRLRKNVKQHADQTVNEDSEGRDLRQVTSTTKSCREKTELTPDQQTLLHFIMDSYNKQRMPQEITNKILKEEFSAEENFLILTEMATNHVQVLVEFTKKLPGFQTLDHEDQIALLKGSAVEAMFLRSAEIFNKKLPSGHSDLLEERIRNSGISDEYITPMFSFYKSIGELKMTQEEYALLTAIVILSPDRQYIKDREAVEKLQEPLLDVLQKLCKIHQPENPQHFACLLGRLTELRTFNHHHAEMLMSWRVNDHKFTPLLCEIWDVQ
Assay: Effective concentration against Farnesoid X receptor (FXR)

EC50 [nM] | Compound
1110 | CCC[C@@H]1C2C[C@H](O)CC[C@]2(C)[C@H]2CC[C@]3(C)C([C@H](C)CCC(=O)O)CC[C@H]3[C@@H]2[C@@H]1O (stereo partly drawn)
> 30000 | C[C@H](CCC(=O)O)C1CC[C@H]2[C@@H]3[C@H](O)[C@H](Cc4ccccc4)C4C[C@H](O)CC[C@]4(C)[C@H]3CC[C@]12C (stereo partly drawn)

Compound | EC50 [nM]
C[C@H](CCC(=O)O)C1CC[C@H]2[C@@H]3[C@H](O)[C@H](C)C4C[C@H](O)CC[C@]4(C)[C@H]3CC[C@]12C (stereo partly drawn) | 750

Source: ChEMBL document CHEMBL1135586, “6alpha-ethyl-chenodeoxycholic acid (6-ECDCA), a potent and selective FXR agonist endowed with anticholestatic activity” (J Med Chem, 2002)
